Among the data in ChEMBL document CHEMBL1140244, “Carbonic anhydrase inhibitors. Synthesis and inhibition of cytosolic/tumor-associated carbonic anhydrase isozymes I, II, and IX with boron-containing sulfonamides, sulfamides, and sulfamates: toward agents for boron neutron capture therapy of hypoxic tumors” (Bioorg Med Chem Lett, 2005) are Ki values, retold here.

The target in assay [1] is Carbonic anhydrase 1 (Homo sapiens, UniProt P00915).
Assay [2] concerns the target Carbonic anhydrase 2 (Homo sapiens, UniProt P00918).
In assay [3] the target is Carbonic anhydrase 9 (Homo sapiens, UniProt Q16790).

Chain of Carbonic anhydrase 1 (P00915 whole entry): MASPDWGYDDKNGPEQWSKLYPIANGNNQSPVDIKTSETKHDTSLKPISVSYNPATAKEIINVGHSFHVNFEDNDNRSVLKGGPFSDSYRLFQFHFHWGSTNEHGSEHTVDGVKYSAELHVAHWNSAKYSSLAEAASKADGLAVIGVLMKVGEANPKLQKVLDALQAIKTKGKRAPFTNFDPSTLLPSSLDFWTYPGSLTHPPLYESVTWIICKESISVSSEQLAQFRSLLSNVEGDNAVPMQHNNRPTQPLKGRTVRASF

As for `CC1(C)OB(c2ccc(NC(=S)Nc3ccc(S(=O)(=O)Nc4nnc(S(N)(=O)=O)s4)cc3)cc2)OC1(C)C`, the Ki in assay [1] was determined as 34 nM; in assay [2], 5.1 nM; in assay [3] it was 7.3 nM.
On to `CC1(C)OB(c2ccc(C(=O)Nc3ccc(S(N)(=O)=O)cc3)cc2)OC1(C)C`, for which the inhibitory constant (Ki) in assay [1] was found to be 70 nM; in assay [2] it was 5.2 nM; in assay [3], 53 nM.
Regarding `CC1(C)OB(c2ccc(C(=O)Nc3nnc(S(N)(=O)=O)s3)cc2)OC1(C)C`, the Ki in assay [1] was 36 nM; in assay [2], 3.1 nM; in assay [3], 7.6 nM.
Consider `CC1(C)OB(c2ccc(NC(=S)Nc3ccc(S(N)(=O)=O)cc3Br)cc2)OC1(C)C`, for which the Ki in assay [1] is 72 nM; in assay [2], 5.1 nM; in assay [3], 89 nM.
For `CC1(C)OB(c2ccc(NC(=S)Nc3ccc(S(N)(=O)=O)cc3)cc2)OC1(C)C`, in that order: 69 nM, 5.1 nM and 80 nM.
With `CC1(C)OB(c2ccc(NS(N)(=O)=O)cc2)OC1(C)C`, the Ki turned out to be 92 nM in assay [1] and 81 nM in assay [3].
For `CC1(C)OB(c2ccc(OS(N)(=O)=O)cc2)OC1(C)C`, the Ki in assay [1] was found to be 94 nM; in assay [2], 32 nM; in assay [3] it was 80 nM.
On to `CC1(C)OB(c2ccc(NC(=S)Nc3cccc(S(N)(=O)=O)c3)cc2)OC1(C)C`, for which the Ki in assay [1] was 70 nM; in assay [2], 5.5 nM; in assay [3], 81 nM.
Regarding `CC1(C)OB(c2ccc(N/C(S)=N/c3ccc(S(N)(=O)=O)cc3Cl)cc2)OC1(C)C`, the Ki in assay [1] was 70.5 nM; in assay [2], 5 nM; in assay [3], 81 nM.
On to `CC1(C)OB(c2ccc(NC(=S)Nc3ccc(S(N)(=O)=O)cc3I)cc2)OC1(C)C`, for which the inhibitory constant (Ki) in assay [1] came to 91 nM; in assay [2], 9.8 nM; in assay [3], 9.3 nM.
With `CC1(C)OB(c2ccc(N/C(S)=N/c3ccc(S(N)(=O)=O)cc3F)cc2)OC1(C)C`, the Ki in assay [1] was 77 nM; in assay [2] it was 5.1 nM; in assay [3] it was 10.1 nM.
For the compound `CC1(C)OB(c2ccc(C(=O)NCc3ccc(S(N)(=O)=O)cc3)cc2)OC1(C)C`, the inhibition constant Ki in assay [1] is 69 nM; in assay [2] it was 5.4 nM.
`CC1(C)OB(c2ccc(N/C(S)=N/c3ccc(S(=O)(=O)Nc4ccc(S(N)(=O)=O)cc4)cc3)cc2)OC1(C)C`: the inhibitory constant (Ki) in assay [1] was 49 nM; in assay [2], 6.3 nM; in assay [3], 84 nM.
The like results for `CC1(C)OB(c2ccc(C(=O)NCCc3ccc(S(N)(=O)=O)cc3)cc2)OC1(C)C` were, in that order, 70 nM, 5.1 nM and 42 nM.
